# Test results published in article PMC6471485, “Selective Inhibitors of a Human Prolyl Hydroxylase (OGFOD1) Involved in Ribosomal Decoding” (Chemistry (Weinheim an Der Bergstrasse, Germany), 2019).
# Where “and” joins values, the source holds several entries; their conditions need not be identical. Identical values can stand only once.
# Columns and labels:
# Assay type in all cases: biochemical
# OGFOD1 = target: T1, OGFOD1 (Homo sapiens, UniProt Q8N543); experiment: OGFOD1 inhibition assay: hydroxylation of RPS23 51-70 peptide by MALDI-TOF MS; conditions: IC50 against OGFOD1, 1 μM OGFOD1; minimum measurable IC50 0.5 μM; values for 24 and 25 regarded as preliminary
# T1 sequence (Q8N543 1-542): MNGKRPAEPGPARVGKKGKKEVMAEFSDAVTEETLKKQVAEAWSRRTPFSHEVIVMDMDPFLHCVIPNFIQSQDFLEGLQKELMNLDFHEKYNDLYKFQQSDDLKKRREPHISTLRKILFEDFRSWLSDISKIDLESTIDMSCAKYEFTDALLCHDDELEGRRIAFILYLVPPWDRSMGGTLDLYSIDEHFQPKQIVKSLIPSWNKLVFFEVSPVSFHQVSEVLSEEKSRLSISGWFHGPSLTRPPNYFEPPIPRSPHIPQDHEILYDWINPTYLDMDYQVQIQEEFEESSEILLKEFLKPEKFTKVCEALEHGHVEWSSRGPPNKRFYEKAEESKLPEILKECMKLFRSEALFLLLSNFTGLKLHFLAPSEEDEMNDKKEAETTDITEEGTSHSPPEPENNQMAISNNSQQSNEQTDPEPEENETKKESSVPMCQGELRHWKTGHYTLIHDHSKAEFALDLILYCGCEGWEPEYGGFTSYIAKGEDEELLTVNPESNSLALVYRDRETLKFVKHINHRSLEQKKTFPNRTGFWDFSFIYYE
# Experimental: (§1) OGFOD1 inhibition assays were performed by determining the extent of hydroxylation of a 20mer fragment of human ribosomal protein S23 (RPS23) containing residues 51-70 (H2N- […]
# (§2) -CONH2) by matrix-assisted laser desorption/ionization time-of-flight mass spectrometry (MALDI-TOF MS) using a Waters Micromass MALDI micro MX mass spectrometer and MassLynx 4.1, as previously described.[7,8] The optimized hydroxylation assay involved incubation of OGFOD1 (1 µM) with inhibitor (1 % v/v in DMSO) in the presence of (NH4)2Fe(SO4)2 (50 µM), the disodium salt of 2-oxoglutarate (25 µM), […]
# OGFOD1 was pre-incubated with inhibitor for 5 min before initiation of the reaction via the addition of the other reagents. Reactions were quenched with formic acid (1 % v/v) after 15 min. Samples were prepared for MALDI using α-cyano-4-hydrocinnamic acid (CHCA; prepared in 50 % acetonitrile) as a matrix. Dose-responses were assessed in 8-point triplicates, normalized to a no enzyme negative control and a no inhibitor positive control. Non-linear regression analysis was performed using Prism (GraphPad). […]
# PHD2181-426 = target: T2, PHD2181-426 (Homo sapiens, UniProt Q9GZT9); experiment: PHD2 inhibition assay: hydroxylation of HIF-1a CODD peptide by MALDI-TOF MS
# T2 construct: 181-426 (1 µM) was
# T2 sequence (Q9GZT9 181-426 limits assumed): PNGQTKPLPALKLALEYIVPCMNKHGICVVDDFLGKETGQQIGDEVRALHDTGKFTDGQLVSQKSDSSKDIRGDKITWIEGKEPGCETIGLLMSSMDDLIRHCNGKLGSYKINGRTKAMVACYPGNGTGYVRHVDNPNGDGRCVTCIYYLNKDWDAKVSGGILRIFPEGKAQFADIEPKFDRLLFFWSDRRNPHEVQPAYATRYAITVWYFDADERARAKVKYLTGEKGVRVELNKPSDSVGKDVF
# Experimental: as §1, §2
# OGFOD1 was pre-incubated with inhibitor for 5 min before initiation of the reaction via the addition of the other reagents. Reactions were quenched with formic acid (1 % v/v) after 15 min. Samples were prepared for MALDI using α-cyano-4-hydrocinnamic acid (CHCA; prepared in 50 % acetonitrile) as a matrix. Dose-responses were assessed in 8-point triplicates, normalized to a no enzyme negative control and a no inhibitor positive control. Non-linear regression analysis was performed using Prism (GraphPad).
# PHD2181-426 inhibition assays were performed by determining the extent of hydroxylation of a HIF-1a CODD peptide substrate (HIF-1a residues 556-574), using MALDI-TOF MS as described with OGFOD1.[8] The optimized hydroxylation assay involved incubation of PHD2181-426 (1 µM) with inhibitor (1 % v/v in DMSO) in the presence of (NH4)2Fe(SO4)2 (10 µM), the disodium salt of 2-oxoglutarate (60 µM), sodium ascorbate (100 µM), and HIF-1aCODD 556-574 (50 µM) in HEPES (50 mM, pH 7.5) at 37 °C for 15 min. The FIH assay employed MALDI-TOF MS detection of hydroxylation. Reactions consisted of FIH […]
# (50 nM), ankyrin peptide (50 µM; […]), the disodium salt of 2- […]
# oxoglutarate (100 µM), sodium ascorbate (100 µM), and (NH4)2Fe(SO4)2 (10 µM), and […]
# FIH = FIH (Homo sapiens, UniProt Q9NWT6); experiment: FIH assay, MALDI-TOF MS detection of hydroxylation
# FIH, sequence (Q9NWT6 whole entry): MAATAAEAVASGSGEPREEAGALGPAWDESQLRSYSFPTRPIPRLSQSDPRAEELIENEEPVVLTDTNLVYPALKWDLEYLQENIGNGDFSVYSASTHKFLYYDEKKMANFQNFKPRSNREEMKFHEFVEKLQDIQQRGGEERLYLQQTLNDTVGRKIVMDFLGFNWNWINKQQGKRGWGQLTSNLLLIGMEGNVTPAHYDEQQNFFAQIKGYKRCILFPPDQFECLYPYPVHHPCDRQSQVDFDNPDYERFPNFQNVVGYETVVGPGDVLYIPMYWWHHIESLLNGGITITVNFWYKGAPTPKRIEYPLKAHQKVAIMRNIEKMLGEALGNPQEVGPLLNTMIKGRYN
# JARID1B = JARID1B (Homo sapiens, UniProt Q9UGL1); experiment: JARID1B AlphaScreen-based assay
# JARID1B, sequence (Q9UGL1 whole entry): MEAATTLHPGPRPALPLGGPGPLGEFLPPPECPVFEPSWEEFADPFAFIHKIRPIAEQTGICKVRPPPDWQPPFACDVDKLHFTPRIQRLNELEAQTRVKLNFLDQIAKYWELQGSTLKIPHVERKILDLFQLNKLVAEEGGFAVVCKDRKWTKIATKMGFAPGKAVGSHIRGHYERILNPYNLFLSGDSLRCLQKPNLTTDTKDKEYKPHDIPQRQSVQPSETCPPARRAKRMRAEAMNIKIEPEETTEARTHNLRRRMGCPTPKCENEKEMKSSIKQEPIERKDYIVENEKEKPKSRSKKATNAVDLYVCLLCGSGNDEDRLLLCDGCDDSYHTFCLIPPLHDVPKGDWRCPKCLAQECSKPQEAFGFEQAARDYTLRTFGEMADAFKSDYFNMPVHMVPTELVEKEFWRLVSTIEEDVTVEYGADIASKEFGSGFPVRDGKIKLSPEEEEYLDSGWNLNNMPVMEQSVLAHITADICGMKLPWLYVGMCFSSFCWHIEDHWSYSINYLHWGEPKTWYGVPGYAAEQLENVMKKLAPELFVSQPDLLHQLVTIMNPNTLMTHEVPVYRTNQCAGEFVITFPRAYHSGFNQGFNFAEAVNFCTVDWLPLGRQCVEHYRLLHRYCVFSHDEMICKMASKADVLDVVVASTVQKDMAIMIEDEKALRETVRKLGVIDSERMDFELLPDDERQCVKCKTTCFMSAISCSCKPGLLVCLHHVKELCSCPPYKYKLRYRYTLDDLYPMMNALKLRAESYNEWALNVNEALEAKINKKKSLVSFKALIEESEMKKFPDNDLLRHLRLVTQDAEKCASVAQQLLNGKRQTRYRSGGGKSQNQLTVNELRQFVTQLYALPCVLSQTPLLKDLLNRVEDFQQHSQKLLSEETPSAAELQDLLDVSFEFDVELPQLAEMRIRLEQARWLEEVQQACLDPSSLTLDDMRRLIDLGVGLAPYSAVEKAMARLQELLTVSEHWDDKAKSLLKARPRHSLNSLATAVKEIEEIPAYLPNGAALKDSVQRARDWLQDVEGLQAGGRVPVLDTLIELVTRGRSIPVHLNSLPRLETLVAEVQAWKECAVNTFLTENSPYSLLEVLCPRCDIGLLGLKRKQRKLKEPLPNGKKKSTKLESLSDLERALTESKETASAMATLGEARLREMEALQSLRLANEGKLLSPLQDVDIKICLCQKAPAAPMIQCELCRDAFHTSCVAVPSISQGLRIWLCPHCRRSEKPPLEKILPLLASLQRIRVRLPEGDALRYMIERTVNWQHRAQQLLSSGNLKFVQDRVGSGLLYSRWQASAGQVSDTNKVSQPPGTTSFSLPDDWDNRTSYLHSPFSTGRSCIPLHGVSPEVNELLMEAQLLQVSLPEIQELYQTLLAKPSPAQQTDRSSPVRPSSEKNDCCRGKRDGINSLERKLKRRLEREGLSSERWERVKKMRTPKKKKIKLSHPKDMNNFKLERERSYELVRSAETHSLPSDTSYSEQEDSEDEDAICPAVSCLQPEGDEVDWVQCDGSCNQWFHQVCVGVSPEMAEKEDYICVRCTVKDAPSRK
# Experimental: (§3) reactions were quenched after 4 min. KDM4A inhibition was tested as described previously using a formaldehyde dehydrogenase (FDH) assay.[9] JARID1B and JARID1C inhibition was tested as described previously using reported AlphaScreen-based assays.[10] MINA531-464 and NO66116-641 were cloned into pFB-LIC-Bse, and the N-terminal His-tagged proteins were produced in Sf9 insect cells. The MINA53 peptide substrate Rpl27a […]
# (§4) (Gly31 – Pro49 […]) and the NO66 peptide substrate Rpl8
# (§5) (Asn205 – Thr224 […]) were synthesized by Peptide Protein
# (§6) Research Ltd (Fareham, Hampshire, UK) to >95% purity. IC50 determinations were performed in 384-well polypropylene plates (Greiner Bio One, Cat Number 781096), and compound dispenses were performed using an ECHO 550 acoustic dispenser (Labcyte, Sunnyvale, CA).
# (§7) NO66 (diluted to 375 nM in 50 mM MES pH 7.0, 150 mM NaCl) and MINA53 (diluted to 187.5 nM in 50 mM HEPES pH 7.5, 50 mM NaCl) were dispensed (40 µL) into 384-well compound plates using a multidrop combi reagent dispenser (Thermo Scientific, Code 5840300) with a small tube plastic tip dispensing cassette (Thermo Scientific, Code 24073290).
# (§8) NO66 and MINA53 were pre-incubated with compound for 15 minutes, and the enzyme reaction initiated by dispensing 10 µL of substrate solution [250 µM (NH4)2Fe(SO4)2, 500 µM sodium ascorbate, 25 µM 2OG, 25 µM peptide] in optimized enzyme buffer. […]
# JARID1C = JARID1C (Homo sapiens, UniProt P41229); experiment: JARID1C AlphaScreen-based assay
# JARID1C, sequence (P41229 whole entry): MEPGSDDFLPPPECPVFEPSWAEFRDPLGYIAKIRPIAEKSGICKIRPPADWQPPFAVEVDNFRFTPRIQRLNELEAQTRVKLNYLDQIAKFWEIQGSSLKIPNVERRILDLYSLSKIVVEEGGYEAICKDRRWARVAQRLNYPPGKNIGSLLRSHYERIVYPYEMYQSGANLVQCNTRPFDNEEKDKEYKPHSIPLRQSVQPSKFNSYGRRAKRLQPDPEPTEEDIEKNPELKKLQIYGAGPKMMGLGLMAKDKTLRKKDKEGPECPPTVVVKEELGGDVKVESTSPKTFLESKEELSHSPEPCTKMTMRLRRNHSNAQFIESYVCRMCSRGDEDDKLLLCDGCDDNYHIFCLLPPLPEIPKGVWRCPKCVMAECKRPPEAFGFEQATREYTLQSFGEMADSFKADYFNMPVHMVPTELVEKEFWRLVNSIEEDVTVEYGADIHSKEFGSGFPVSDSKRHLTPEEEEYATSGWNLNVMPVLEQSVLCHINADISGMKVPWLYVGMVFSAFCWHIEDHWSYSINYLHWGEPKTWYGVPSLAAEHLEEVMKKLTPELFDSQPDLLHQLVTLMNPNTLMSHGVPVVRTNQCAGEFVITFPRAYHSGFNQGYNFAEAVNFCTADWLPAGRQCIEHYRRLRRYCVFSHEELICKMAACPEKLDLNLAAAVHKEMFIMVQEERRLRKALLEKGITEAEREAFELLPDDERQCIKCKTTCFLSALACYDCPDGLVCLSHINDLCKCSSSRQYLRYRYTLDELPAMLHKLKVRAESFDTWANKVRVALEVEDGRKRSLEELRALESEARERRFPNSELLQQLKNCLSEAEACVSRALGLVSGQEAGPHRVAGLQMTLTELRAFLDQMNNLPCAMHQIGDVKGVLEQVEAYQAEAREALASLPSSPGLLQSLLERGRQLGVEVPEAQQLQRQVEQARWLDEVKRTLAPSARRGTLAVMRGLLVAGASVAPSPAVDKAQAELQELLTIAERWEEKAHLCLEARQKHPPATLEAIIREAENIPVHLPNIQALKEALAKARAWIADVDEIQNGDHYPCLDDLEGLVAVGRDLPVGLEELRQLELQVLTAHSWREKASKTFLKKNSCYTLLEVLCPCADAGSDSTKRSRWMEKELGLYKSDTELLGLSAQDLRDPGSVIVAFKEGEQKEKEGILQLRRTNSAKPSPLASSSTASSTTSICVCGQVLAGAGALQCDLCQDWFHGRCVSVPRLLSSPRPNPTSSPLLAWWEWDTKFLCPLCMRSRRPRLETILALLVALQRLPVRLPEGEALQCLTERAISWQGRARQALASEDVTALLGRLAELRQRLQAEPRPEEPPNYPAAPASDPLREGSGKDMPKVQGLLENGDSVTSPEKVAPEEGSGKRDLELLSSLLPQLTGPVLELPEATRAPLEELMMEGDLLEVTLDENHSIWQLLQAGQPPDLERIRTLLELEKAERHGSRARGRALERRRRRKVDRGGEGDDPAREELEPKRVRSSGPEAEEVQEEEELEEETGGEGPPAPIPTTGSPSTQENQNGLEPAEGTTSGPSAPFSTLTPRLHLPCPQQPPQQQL
# Experimental: as §3, §4, §5, §6, §7, §8
# Tpa1p = Tpa1p (Saccharomyces cerevisiae, UniProt P40032); experiment: Tpa1p inhibition assay (Figure S12); conditions: Tpa1p 2 µM (Figure S12)
# Tpa1p, sequence (P40032 whole entry): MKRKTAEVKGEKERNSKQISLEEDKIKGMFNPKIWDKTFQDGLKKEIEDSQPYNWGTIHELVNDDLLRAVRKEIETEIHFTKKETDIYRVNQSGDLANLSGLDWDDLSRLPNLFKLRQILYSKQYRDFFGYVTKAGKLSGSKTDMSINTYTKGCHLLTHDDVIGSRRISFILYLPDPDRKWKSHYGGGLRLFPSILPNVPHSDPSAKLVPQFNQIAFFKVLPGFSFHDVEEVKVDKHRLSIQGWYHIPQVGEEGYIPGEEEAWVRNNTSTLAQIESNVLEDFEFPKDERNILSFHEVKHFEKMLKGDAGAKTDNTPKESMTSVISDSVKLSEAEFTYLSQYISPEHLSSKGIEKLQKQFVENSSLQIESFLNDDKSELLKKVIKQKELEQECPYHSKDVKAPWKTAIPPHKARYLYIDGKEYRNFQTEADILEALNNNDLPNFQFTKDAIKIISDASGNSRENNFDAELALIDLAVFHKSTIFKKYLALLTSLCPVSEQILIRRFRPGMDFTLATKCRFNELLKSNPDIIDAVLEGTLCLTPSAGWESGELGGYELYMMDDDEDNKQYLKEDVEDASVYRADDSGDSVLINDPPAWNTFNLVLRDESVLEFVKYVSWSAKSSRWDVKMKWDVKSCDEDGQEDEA
structure (smiles),measurement,setting,value
Cn1c(O)c(C(=O)CCc2ccccc2)c(=O)n(C)c1=O [compound 26],IC50,OGFOD1,0.7 µM and 0.73 µM and < 1 µM
same,IC50,PHD2181-426,> 100 µM
same,"inhibition of PHD2 hydroxylation activity, in words","PHD2181-426; inhibitor 100 µM, PHD2181-426 1 µM (Figures S2, S8)",Lack of inhibition
same,IC50,FIH,> 100 µM
same,IC50,JARID1B,> 100 µM
same,IC50,JARID1C,> 100 µM
same,"inhibition of Tpa1p, in words",Tpa1p,potently inhibit
Cn1c(O)c(C(=O)CCc2cccs2)c(=O)n(C)c1=O [compound 42],IC50,OGFOD1,0.69 µM and < 1 µM
same,IC50,PHD2181-426,> 100 µM
same,IC50,FIH,> 100 µM
same,IC50,JARID1B,> 100 µM
same,IC50,JARID1C,> 100 µM
same,"inhibition of Tpa1p, in words",Tpa1p,potently inhibit
